The values that follow come from patent US8163909B2, “Substituted hydroxyethyl amine compounds as beta-secretase modulators and methods of use” (Amgen Inc., priority 2007, dated 2012).

The structures appear in SMILES notation. Like-named read-outs stand apart in the source and are kept apart here.

The nature of data set [1]: Microsomal stability assay, human liver microsomes.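 Also: pooled human liver microsomes at 0.25 mg/mL with 1 µM compound and NADPH at 37 °C, pH 7.4, for 30 min, unchanged parent quantified by LC-MS/MS against the 0 min sample.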
Data set [2] has as its system Aβ40 in conditioned medium of cells stably expressing Amyloid Precursor Protein (APP). Put plainly: In vitro BACE cell-based assay (Aβ40 in conditioned medium, sandwich ELISA).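 Also: compounds added as a dilution series, secreted peptide quantified by europium time-resolved fluorescence readout, potency fitted from percent of control versus compound concentration.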 The conditions noted are these: Homo sapiens. Background: An ELISA detects its analyte on a solid surface through an enzyme-linked reagent.
For data set [3], the target named is Beta Secretase enzyme (BACE) (Homo sapiens, UniProt P56817). Put plainly: In vitro enzymatic BACE FRET (fluorescence resonance energy transfer) assay.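 Also: fluorescence read after 1 h with 50 nM quenched peptide substrate spanning the BACE cleavage site, in pH 4.2 acetate buffer containing 10% DMSO and nonionic detergent.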 The class given is biochemical.
Chain of Beta Secretase enzyme (BACE) (P56817 46-501): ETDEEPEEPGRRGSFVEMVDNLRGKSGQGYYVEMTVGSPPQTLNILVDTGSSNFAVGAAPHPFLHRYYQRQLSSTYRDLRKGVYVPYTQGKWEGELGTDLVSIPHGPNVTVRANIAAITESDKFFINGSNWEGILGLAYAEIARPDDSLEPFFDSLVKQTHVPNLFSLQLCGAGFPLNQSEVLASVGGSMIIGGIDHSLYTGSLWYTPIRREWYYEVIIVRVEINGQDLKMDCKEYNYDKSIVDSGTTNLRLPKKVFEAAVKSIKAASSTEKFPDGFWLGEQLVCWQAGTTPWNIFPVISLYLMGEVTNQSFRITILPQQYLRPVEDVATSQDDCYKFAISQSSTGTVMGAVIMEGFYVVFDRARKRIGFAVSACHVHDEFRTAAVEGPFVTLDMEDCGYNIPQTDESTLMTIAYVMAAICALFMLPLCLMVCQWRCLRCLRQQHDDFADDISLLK
A short description of data set [4]: Microsomal stability assay, rat liver microsomes.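 Also: rat liver microsomes (0.25 mg/mL) with about 1 µM compound plus 1 mM NADPH, pH 7.4, 37 °C for 30 min, parent left measured by LC-MS/MS against 0 min.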
Data set [5] has as its target CYP3A4 (CYP3A) (Homo sapiens, UniProt P08684). Put plainly: in vitro. The conditions noted are these: microsomes, pH 7.4.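 Also: inhibition of CYP3A-mediated 1-hydroxymidazolam formation after 10 min incubation with NADPH, quantified by HPLC MS relative to metabolite produced without test compound.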
Data set [6] has as its target CYP2D6 (Homo sapiens, UniProt P10635). Put plainly: CYP2D6 inhibition assay (bufuralol, pooled human liver microsomes). A general note: Liver microsomes are vesicles of endoplasmic reticulum, rich in cytochrome P450 enzymes.
Setting [7] is: HEK293, HEK cell-based assay IC50, read-out: HEK cell assay.
The mark [8] stands for this setting: BACE enzyme assay IC50, read-out: BACE1 FRET assay.
Where [9] appears, read: 2D6 IC50 (uM), CYP2D6 inhibition.
The mark [10] stands for this setting: HEK293, HEK cells, read-out: HEK cell assay.
Where [11] appears, read: BACE enzyme assay, read-out: BACE1 FRET assay.
Where [12] appears, read: 2D6 IC50 (uM), CYP enzyme inhibition.
Where [13] appears, read: HEK293, HEK cell-based assay, IC50's in uM, read-out: HEK cell assay.
The mark [14] stands for this setting: BACE enzyme assay, IC50's in uM, read-out: BACE1 FRET assay.
The mark [15] stands for this setting: HEK293, HEK cells, read-out: HEK cell assay (IC50).
[16] abbreviates: read-out: BACE1 FRET assay (IC50).
The mark [17] stands for this setting: HEK293, Table 2, HEK cells, read-out: HEK cell assay.
Where [18] appears, read: Table 2, read-out: BACE1 FRET assay.
The mark [19] stands for this setting: 2D6 IC50, CYP enzyme inhibition.

Chain of CYP2D6 (P10635 whole entry): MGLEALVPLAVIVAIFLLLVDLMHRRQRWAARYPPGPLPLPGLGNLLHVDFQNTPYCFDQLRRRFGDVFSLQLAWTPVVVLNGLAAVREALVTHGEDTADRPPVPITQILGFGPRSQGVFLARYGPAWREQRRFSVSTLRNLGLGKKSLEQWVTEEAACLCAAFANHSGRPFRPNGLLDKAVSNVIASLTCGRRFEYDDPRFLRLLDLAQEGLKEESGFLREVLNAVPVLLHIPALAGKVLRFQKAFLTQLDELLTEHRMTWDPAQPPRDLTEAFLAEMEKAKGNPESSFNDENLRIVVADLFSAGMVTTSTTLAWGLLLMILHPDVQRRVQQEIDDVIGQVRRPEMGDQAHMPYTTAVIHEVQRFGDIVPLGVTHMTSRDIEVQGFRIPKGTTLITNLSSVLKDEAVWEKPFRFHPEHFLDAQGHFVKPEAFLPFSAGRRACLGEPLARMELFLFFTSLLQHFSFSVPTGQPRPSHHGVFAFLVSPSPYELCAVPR
Chain of CYP3A4 (CYP3A) (P08684 2-503): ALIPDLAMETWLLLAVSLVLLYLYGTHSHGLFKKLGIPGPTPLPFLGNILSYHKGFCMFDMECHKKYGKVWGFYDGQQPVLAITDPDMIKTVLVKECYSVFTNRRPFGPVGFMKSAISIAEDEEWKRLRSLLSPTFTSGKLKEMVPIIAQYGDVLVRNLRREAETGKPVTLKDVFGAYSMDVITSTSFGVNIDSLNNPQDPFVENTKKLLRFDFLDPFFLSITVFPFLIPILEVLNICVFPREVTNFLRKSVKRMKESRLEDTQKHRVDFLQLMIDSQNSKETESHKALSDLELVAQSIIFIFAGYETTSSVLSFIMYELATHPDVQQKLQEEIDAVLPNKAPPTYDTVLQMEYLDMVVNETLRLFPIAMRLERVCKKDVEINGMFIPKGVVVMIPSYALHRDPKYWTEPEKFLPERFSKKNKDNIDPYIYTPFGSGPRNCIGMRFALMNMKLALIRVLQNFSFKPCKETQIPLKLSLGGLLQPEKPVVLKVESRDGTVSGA

With `COCC(=O)N[C@@H](Cc1ccc(F)c(-c2nccs2)c1)[C@H](O)CN[C@H]1CC2(CCC2)Oc2ncc(CC(C)C)cc21` [compound 727], the “HLM” value in data set [1] (human liver microsomes) was found to be 45 µL/min/mg. Also, the IC50 in data set [2] (setting [7]) was 0.023 µM; in data set [3] (setting [8]) it was 0.011 µM; in data set [5] it was no more than 30 nM; in data set [6] (setting [9]), 0.5 µM. Besides, the “RLM” value in data set [4] (rat liver microsomes) was found to be 74 µL/min/mg.
Regarding `COCC(=O)N[C@@H](Cc1cc(F)cc(F)c1)[C@H](O)CN[C@H]1CC2(CCC2)Oc2c(-c3cncs3)cc(CC(C)C)cc21` [compound 490], the “HLM” value in data set [1] (human liver microsomal data) worked out at 344 µL/min/mg. In addition, the IC50 in data set [2] (setting [10]) stood at 0.029 µM; in data set [3] (setting [11]), 0.003 µM; in data set [5] it was 200 nM; in data set [6] (setting [12]), 7.5 µM. For the same compound, the “RLM” value in data set [4] (rat liver microsomal data) amounted to 249 µL/min/mg.
With `CC[C@@H](OC)C(=O)N[C@@H](Cc1ccc(F)cc1)[C@H](O)CN[C@H]1CC2(CCC2)Oc2ncc(CC(C)(C)C)cc21` [compound 566], the “HLM” value in data set [1] (human liver microsomal data) is 392 µL/min/mg. Moreover, the IC50 in data set [2] (setting [10]) turned out to be 0.165 µM; in data set [3] (setting [11]), 0.026 µM; in data set [5], 300 nM; in data set [6] (setting [12]), 13 µM. The “RLM” value in data set [4] (rat liver microsomal data) worked out at 590 µL/min/mg.
On to `CC#Cc1cnc2c(c1)[C@@H](NC[C@@H](O)[C@H](Cc1cccc(Br)c1)NC(=O)COC)CC1(CCC1)O2` [compound 812], for which the “HLM” value in data set [1] (human liver microsomal data) was 260 µL/min/mg. The IC50 is 0.954 µM in data set [2] (setting [13]), 0.258 µM in data set [3] (setting [14]), 400 nM in data set [5] and 3 µM in data set [6] (setting [12]). For the same compound, in data set [4] (rat liver microsomal data), the “RLM” value stood at 345 µL/min/mg.
Consider `COCC(=O)N[C@@H](Cc1ccccc1)[C@H](O)CN[C@H]1CC2(CCC2)Oc2ccc(C[C@H](C)F)cc21` [compound 611], for which the HLM in data set [1] (human liver microsomes) was 644 µL/min/mg. Also, the IC50 in data set [2] (setting [15]) was determined as 0.116 µM; in data set [3] (setting [16]), 0.103 µM; in data set [5], 18400 nM; in data set [6] (2D6 IC50, CYP2D6 inhibition), 1.2 µM. Further, in data set [4] (rat liver microsomes), the RLM came to 775 µL/min/mg.
In data set [1] (human liver microsomal data), `CC(=O)N[C@@H](C[C@H]1CCOC1)[C@H](O)CN[C@H]1CC2(CCC2)Oc2ncc(CC(C)(C)C)cc21` [compound 469] registered an HLM of 60 µL/min/mg. Besides, the IC50 is 0.162 µM in data set [2] (setting [17]), 0.137 µM in data set [3] (setting [18]), 16400 nM in data set [5] and no less than 27 µM in data set [6] (setting [19]). Besides, the RLM in data set [4] (rat liver microsomal data) was found to be 35 µL/min/mg.
On to `CC(C)(C)Cc1cnc2c(c1)[C@@H](NC[C@@H](O)[C@H](Cc1ccc(F)cc1)NC(=O)[C@H]1CCO1)CC1(CCC1)O2` [Example 440, (2R)—N-((1S,2R)-3-(((4′S)-6′-(2,2-dimethylpropyl)-3′,4′-dihydrospiro[cyclobutane-1,2′-pyrano[2,3-b]pyridin]-4′-yl)amino)-1-((4-fluorophenyl)methyl)-2-hydroxypropyl)-2-oxetanecarboxamide], for which the “HLM” value in data set [1] (human liver microsomal data) amounted to 209 µL/min/mg. Moreover, the IC50 in data set [2] (setting [10]) was found to be 0.035 µM; in data set [3] (setting [11]), 0.016 µM; in data set [5] it was 700 nM; in data set [6] (setting [12]) it was 8.2 µM. The “RLM” value in data set [4] (rat liver microsomal data) came to 242 µL/min/mg.
In data set [1] (human liver microsomes), `C[C@H](F)C(=O)N[C@@H](Cc1cccc(F)c1)[C@H](O)CN[C@H]1CC2(CCC2)Oc2ncc(CC(C)(F)F)cc21` [compound 608] came in with an HLM of 232 µL/min/mg. In addition, the IC50 in data set [2] (setting [15]) was 0.016 µM; in data set [3] (setting [16]), 0.008 µM; in data set [5], 4500 nM; in data set [6] (2D6 IC50, CYP2D6 inhibition), 12.2 µM. For the same compound, the RLM in data set [4] (rat liver microsomes) is 183 µL/min/mg.
The compound `CNc1cc(CC(C)(C)C)cc2c1OC1(CCC1)C[C@@H]2NC[C@@H](O)[C@H](Cc1cc(F)cc(F)c1)NC(=O)COC` [compound 479] returned an HLM in data set [1] (human liver microsomal data) of 167 µL/min/mg. Further, the IC50 in data set [2] (setting [17]) stood at 0.017 µM; in data set [3] (setting [18]), 0.011 µM; in data set [5] it was 1800 nM; in data set [6] (setting [19]) it was 6.4 µM. The compound further had an RLM in data set [4] (rat liver microsomal data) of 329 µL/min/mg.
On to `CO[C@H](C)C(=O)N[C@@H](Cc1cc(-c2nccs2)ccc1F)[C@H](O)CN[C@H]1CC2(CCC2)Oc2ncc(CC(C)(C)C)cc21` [compound 898], for which the HLM in data set [1] (human liver microsomal data) was found to be 67 µL/min/mg. Further, the IC50 in data set [2] (HEK293, cell-based assay, HEK cells, IC50's in uM, read-out: HEK cell assay) was 0.014 µM; in data set [3] (setting [14]), 0.01 µM; in data set [5], 100 nM; in data set [6] (setting [19]) it was 1 µM. The RLM in data set [4] (rat liver microsomal data) is 121 µL/min/mg.
In turn, `CO[C@H](C)C(=O)N[C@@H](Cc1ccc2c(c1)OCO2)[C@H](O)CN[C@H]1CC2(CCC2)Oc2nc3c(cc21)[C@H](C(C)C)CO3` [compound 665] came in with an HLM in data set [1] (human liver microsomes) of 61 µL/min/mg. The IC50 is 0.249 µM in data set [2] (setting [15]); 0.927 µM in data set [3] (setting [16]); 200 nM in data set [5]; 4 µM in data set [6] (2D6 IC50, CYP2D6 inhibition). Also, the RLM in data set [4] (rat liver microsomes) was 126 µL/min/mg.
As for `COCC(=O)N[C@@H](Cc1cccc(-c2nccs2)c1)[C@H](O)CN[C@H]1CC2(CCC2)Oc2ncc(CC(C)C)cc21` [Example 757, N-((1S,2R)-2-hydroxy-3-(((4′S)-6′-(2-methylpropyl)-3′,4′-dihydrospiro[cyclobutane-1,2′-pyrano[2,3-b]pyridin]-4′-yl)amino)-1-(3-(1,3-thiazol-2-yl)benzyl)propyl)-2-methoxyacetamide], the “HLM” value in data set [1] (human liver microsomal data) stood at 60 µL/min/mg. The IC50 in data set [2] (setting [13]) amounted to 0.018 µM; in data set [3] (setting [14]), 0.007 µM; in data set [5], 250 nM; in data set [6] (setting [12]), 0.45 µM. Besides, in data set [4] (rat liver microsomal data), the “RLM” value amounted to 60 µL/min/mg.
For the compound `COCC(=O)N[C@@H](Cc1ccc(F)cc1)[C@H](O)CN[C@H]1CC2(CCC2)Oc2ncc(C(F)(F)C(C)(C)C)cc21` [compound 569], the “HLM” value in data set [1] (human liver microsomal data) amounted to 238 µL/min/mg. The IC50 was 0.992 µM in data set [2] (setting [10]), 0.165 µM in data set [3] (setting [11]), 700 nM in data set [5] and no less than 27 µM in data set [6] (setting [12]). In data set [4] (rat liver microsomal data), the “RLM” value was determined as 423 µL/min/mg.
With `CO[C@H](C)C(=O)N[C@@H](Cc1cc(F)cc(Cl)c1)[C@H](O)CN[C@H]1CC2(CCC2)Oc2ncc(CC(C)(F)F)cc21` [compound 820], the “HLM” value in data set [1] (human liver microsomal data) is 682 µL/min/mg. Besides, the IC50 was determined as 0.021 µM in data set [2] (setting [13]), 0.022 µM in data set [3] (setting [14]), 300 nM in data set [5] and 3.8 µM in data set [6] (setting [12]). For the same compound, the “RLM” value in data set [4] (rat liver microsomal data) came out at 324 µL/min/mg.
`CO[C@H](C)C(=O)N[C@@H](Cc1cc(F)cc(-c2nccs2)c1)[C@H](O)CN[C@H]1CC2(CCC2)Oc2ncc(CC(C)(C)C)cc21` [compound 738, (2R)-N-((1S,2R)-3-(((4′S)-6′-(2,2-dimethylpropyl)-3′,4′-dihydrospiro[cyclobutane-1,2′-pyrano[2,3-b]pyridin]-4′-yl)amino)-1-(3-fluoro-5-(1,3-thiazol-2-yl)benzyl)-2-hydroxypropyl)-2-methoxypropanamide]: the “HLM” value in data set [1] (human liver microsomes) came out at 50 µL/min/mg. Besides, the IC50 is 0.01 µM in data set [2] (setting [7]), 0.008 µM in data set [3] (setting [8]), no more than 30 nM in data set [5] and 0.6 µM in data set [6] (setting [9]). Besides, in data set [4] (rat liver microsomes), the “RLM” value came to 59 µL/min/mg.
In the case of `CCOCC(=O)N[C@@H](Cc1cccc(F)c1)[C@H](O)CN[C@H]1CC2(CCC2)Oc2ncc(CC(C)(C)C)cc21` [compound 660], the HLM in data set [1] (human liver microsomes) was determined as 829 µL/min/mg. The IC50 was determined as 0.018 µM in data set [2] (setting [15]); 0.003 µM in data set [3] (setting [16]); 200 nM in data set [5]; 1.9 µM in data set [6] (2D6 IC50, CYP2D6 inhibition). Besides, the RLM in data set [4] (rat liver microsomes) came out at 775 µL/min/mg.
